Reference: US20130324576A1, “THERAPEUTIC COMPOUNDS” (Takeda Pharmaceutical Company Limited, priority 2012, published 2013)

biological target: T1, human PKR1 receptors (Homo sapiens, UniProt Q8TCW9); assay: PKR1 antagonist assay: block of PK1-mediated intracellular calcium release (FLIPR Tetra, Calcium 5 dye); type: cell-based; conditions: RBL2H3 cells expressing human PKR1; 10 min pre-incubation, stimulation with PK1 at EC80; calcium fluorescence
T1 construct: expressed in transfected cells; host or cells: RBL2H3 cells (rat basophilic leukaemia line) expressing human PKR1
T1 sequence (Q8TCW9 whole entry): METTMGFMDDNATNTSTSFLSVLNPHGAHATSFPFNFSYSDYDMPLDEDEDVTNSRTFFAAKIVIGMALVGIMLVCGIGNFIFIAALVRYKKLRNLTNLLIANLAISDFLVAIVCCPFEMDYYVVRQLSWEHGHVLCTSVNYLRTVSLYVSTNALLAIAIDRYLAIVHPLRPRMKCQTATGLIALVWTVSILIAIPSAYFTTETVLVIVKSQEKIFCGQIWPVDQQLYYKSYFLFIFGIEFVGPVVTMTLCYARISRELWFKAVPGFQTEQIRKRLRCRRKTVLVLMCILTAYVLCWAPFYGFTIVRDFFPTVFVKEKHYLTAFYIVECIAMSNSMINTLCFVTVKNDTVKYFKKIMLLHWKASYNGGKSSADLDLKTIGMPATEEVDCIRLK
Experimental: Prokineticin receptor 1 (PKR1) antagonists may be functionally assessed by measurement of change in intracellular calcium levels induced by Gq mediated increase in inositol triphosphate (IP3) levels. The ability of a compound to block the intracellular release of calcium mediated by PK1 in RBL2H3 cells expressing human PKR1 receptors is determined as a measure of the compound's antagonist activity in vitro.
Approximately 10,000 cells per assay well are seeded in normal culture medium in a 384 well plate (Corning). Twenty-four hours after seeding, the cells are loaded with a calcium sensitive fluorescent dye by replacing the culture medium with assay buffer (1× Hanks buffered saline, 25 mM HEPES, 0.1% w/v fatty acid free BSA (bovine serum albumin), pH 7.4) containing 1 mM probenecid and 1× Calcium 5 Reagent (Molecular Devices). Cells are incubated at 37° C. for 1 hour to allow for dye uptake.
To test for antagonist activity, test compounds at a final concentration range between 0.32 nM-10 μM (diluted in assay buffer) are added to the assay wells and allowed to incubate for 10 minutes prior to stimulation with PK1. After incubation with test compounds the assay plate is placed in a FLIPR Tetra (Molecular Devices) and PK1 (diluted in assay buffer) is added at the determined EC80 concentration (final). Ligand-dependent changes in intracellular calcium levels are determined by measuring changes in fluorescence of the dye at […] following excitation at 485 nm.

| IC50 [µM] | Structure (SMILES) |
| --- | --- |
| 5.1 | COc1c(F)cc(OC2CCN(S(=O)(=O)c3c(C)nn(C)c3C)CC2)cc1F [Example 44, 4-(3,5-Difluoro-4-methoxyphenoxy)-1-(trimethyl-1H-pyrazole-4-sulfonyl)piperidine] |
| 5.9 | COc1ccc(OC2CCN(S(=O)(=O)c3c(C)n[nH]c3C)CC2)cc1F [Example 41, 1-(3,5-Dimethyl-1H-pyrazole-4-sulfonyl)-4-(3-fluoro-4-methoxyphenoxy)piperidine] |
| 3.8 | Cc1nn(C)c(C)c1S(=O)(=O)N1CCC(Oc2ccc(Cl)cn2)CC1 [Example 48, 5-Chloro-2-((1-((1,3,5-trimethyl-1H-pyrazol-4-yl)sulfonyl)piperidin-4-yl)oxy)pyridine] |
| 0.34 | Cc1n[nH]c(C)c1S(=O)(=O)N1CCC(C(c2ccc(Cl)cc2)C(F)F)CC1 (stereo not shown) [Example 111, 4-(1-(4-Chlorophenyl)-2,2-difluoroethyl)-1-((3,5-dimethyl-1H-pyrazol-4-yl)sulfonyl)piperidine] |
| 2.9 | Cc1nn(C)c(Cl)c1S(=O)(=O)N1CCC(Oc2ccc(Cl)cc2)CC1 [Example 15, 1-[(5-Chloro-1,3-dimethyl-1H-pyrazol-4-yl)sulfonyl]-4-(4-chlorophenoxy)piperidine] |
| 2.3 | CCn1nc(C)c(S(=O)(=O)N2CCC(Oc3ccc(C)cc3)CC2)c1C [Example 9, 1-[(1-Ethyl-3,5-dimethyl-1H-pyrazol-4-yl)sulfonyl]-4-(4-methylphenoxy)piperidine] |
| 5.6 | Cc1nn(C)c(C)c1S(=O)(=O)N1CCC(Oc2ccccc2)CC1 [Example 19, 4-Phenoxy-1-[(1,3,5-trimethyl-1H-pyrazol-4-yl)sulfonyl]piperidine] |
| 1.18 | Cc1n[nH]c(C)c1S(=O)(=O)N1CCC(Oc2ccc(Cl)cc2Cl)CC1 [Example 22, 4-(2,4-Dichlorophenoxy)-1-[(3,5-dimethyl-1H-pyrazol-4-yl)sulfonyl]piperidine] |
| 1.5 | Cc1nn(C)c(C)c1S(=O)(=O)N1CCC(Oc2ccc(Cl)cc2)CC1C (stereo not shown) [Example 24, 4-(4-Chlorophenoxy)-2-methyl-1-[(1,3,5-trimethyl-1H-pyrazol-4-yl)sulfonyl]piperidine] |
| 0.51 | Cc1nn(C)c(C)c1S(=O)(=O)N1CCC(Oc2ccc(Cl)cc2F)CC1 [Example 30, 4-(4-Chloro-2-fluorophenoxy)-1-(trimethyl-1H-pyrazole-4-sulfonyl)piperidine] |
| 2.4 | Cc1nn(C)c(C)c1S(=O)(=O)N1CCC(O)(Cc2ccc(Cl)cc2Cl)CC1 [Example 59, 4-(2,4-Dichlorobenzyl)-1-((1,3,5-trimethyl-1H-pyrazol-4-yl)sulfonyl)piperidin-4-ol] |
| 3.6 | Cc1nn(C)c(C)c1S(=O)(=O)N1CCC(Oc2ccc(F)cc2)CC1 [Example 20, 4-(4-Fluorophenoxy)-1-[(1,3,5-trimethyl-1H-pyrazol-4-yl)sulfonyl]piperidine] |
| 4.7 | Cc1nn(C)c(C)c1S(=O)(=O)N1CCC(Oc2ccc(C(F)(F)F)cc2)CC1 [Example 12, 4-[4-(Trifluoromethyl)phenoxy]-1-[(1,3,5-trimethyl-1H-pyrazol-4-yl)sulfonyl]piperidine] |
| 0.31 | Cc1n[nH]c(C)c1S(=O)(=O)N1CCC(C(F)c2ccc(Cl)cc2)CC1 (single isomer, unassigned) [Example 107, 4-((4-Chlorophenyl)fluoromethyl)-1-((3,5-dimethyl-1H-pyrazol-4-yl)sulfonyl)piperidine] |
| 0.9 | COCC1(Cc2ccc(Cl)cc2)CCN(S(=O)(=O)c2c(C)nn(C)c2C)CC1 [Example 60, 4-(4-Chlorobenzyl)-4-(methoxymethyl)-1-((1,3,5-trimethyl-1H-pyrazol-4-yl)sulfonyl)piperidine] |
| 8.62 | Cc1n[nH]c(C)c1S(=O)(=O)N1CCC(O)(Cc2ccc(Cl)c(Cl)c2)CC1 [Example 70, 4-(3,4-Dichlorobenzyl)-1-((3,5-dimethyl-1H-pyrazol-4-yl)sulfonyl)piperidin-4-ol] |
| 1.01 | CCc1n[nH]c(CC)c1S(=O)(=O)N1CCC(Cc2ccc(Cl)cc2)CC1 [Example 66, 4-(4-Chlorobenzyl)-1-((3,5-diethyl-1H-pyrazol-4-yl)sulfonyl)piperidine] |
| 0.2 | COc1cc(Cl)ccc1CC1(O)CCN(S(=O)(=O)c2c(C)nn(C)c2C)CC1 [Example 88, 4-(4-Chloro-2-methoxybenzyl)-1-((1,3,5-trimethyl-1H-pyrazol-4-yl)sulfonyl)piperidin-4-ol] |
| 6.3 | COc1ccc(OC2CCN(S(=O)(=O)c3c(C)nn(C)c3C)CC2)cc1F [Example 43, 4-(3-Fluoro-4-methoxyphenoxy)-1-(trimethyl-1H-pyrazole-4-sulfonyl)piperidine] |

| IC50 [µM] | Structure (SMILES) |
| --- | --- |
| 0.41 | COc1cc(Cl)ccc1CC1(O)CCN(S(=O)(=O)c2c(C)n[nH]c2C)CC1 [Example 89, 4-(4-Chloro-2-methoxybenzyl)-1-((3,5-dimethyl-1H-pyrazol-4-yl)sulfonyl)piperidin-4-ol] |
| 7.3 | Cc1nn(C)c(C)c1S(=O)(=O)N1CCC(Oc2ccc(C#N)cc2)CC1 [Example 7, 4-({1-[(1,3,5-Trimethyl-1H-pyrazol-4-yl)sulfonyl]piperidin-4-yl}oxy)benzonitrile] |
| 0.32 | CCc1nn(C)c(CC)c1S(=O)(=O)N1CCC(Oc2ccc(Cl)cc2Cl)CC1 [Example 28, 4-(2,4-Dichlorophenoxy)-1-[(3,5-diethyl-1-methyl-1H-pyrazol-4-yl)sulfonyl]piperidine] |
| 5.88 | COc1cc(Cl)ccc1CC1(OC)CCN(S(=O)(=O)c2c(C)nn(C)c2C)CC1 [Example 87, 4-(4-Chloro-2-methoxybenzyl)-4-methoxy-1-((1,3,5-trimethyl-1H-pyrazol-4-yl)sulfonyl)piperidine] |
| 0.71 | Cc1nn(C)c(C)c1S(=O)(=O)N1CCC(C(O)c2ccc(Cl)cc2)CC1 (stereo not shown) [Example 95, (4-Chlorophenyl)(1-((1,3,5-trimethyl-1H-pyrazol-4-yl)sulfonyl)piperidin-4-yl)methanol] |
| 0.31 | Cc1nn(C)c(C)c1S(=O)(=O)N1CCC(Oc2ccc(Cl)cc2C#N)CC1 [Example 31, 5-Chloro-2-{[1-(trimethyl-1H-pyrazole-4-sulfonyl)piperidin-4-yl]oxy}benzonitrile] |
| 1.7 | Cc1ccc(OC2CCN(S(=O)(=O)c3c(C(F)(F)F)nn(C)c3C)CC2)cc1 [Example 10, 1-{[1,5-Dimethyl-3-(trifluoromethyl)-1H-pyrazol-4-yl]sulfonyl}-4-(4-methylphenoxy)piperidine] |
| 0.78 | Cc1n[nH]c(C)c1S(=O)(=O)N1CCC(Cc2ccc(Cl)c(F)c2)CC1 [Example 71, 4-(4-Chloro-3-fluorobenzyl)-1-((3,5-dimethyl-1H-pyrazol-4-yl)sulfonyl)piperidine] |
| 0.61 | Cc1n[nH]c(C)c1S(=O)(=O)N1CCC(C(C#N)c2ccc(Cl)cc2)CC1 (stereo not shown) [Example 93, 2-(4-Chlorophenyl)-2-(1-((3,5-dimethyl-1H-pyrazol-4-yl)sulfonyl)piperidin-4-yl)acetonitrile] |
| 3.6 | COc1cccc(OC2CCN(S(=O)(=O)c3c(C)nn(C)c3C)CC2)c1 [Example 17, 4-(3-Methoxyphenoxy)-1-[(1,3,5-trimethyl-1H-pyrazol-4-yl)sulfonyl]piperidine] |
| 3.73 | Cc1n[nH]c(C)c1S(=O)(=O)N1CCC(Oc2ccccc2F)CC1 [Example 76, 1-((3,5-Dimethyl-1H-pyrazol-4-yl)sulfonyl)-4-(2-fluorophenoxy)piperidine] |
| 0.95 | Cc1nn(C)c(C)c1S(=O)(=O)N1CCC(Cc2ccc(Cl)c(Cl)c2)CC1 [Example 56, 4-(3,4-Dichlorobenzyl)-1-((1,3,5-trimethyl-1H-pyrazol-4-yl)sulfonyl)piperidine] |
| 1.02 | Cc1n[nH]c(C)c1S(=O)(=O)N1CCC(Cc2ccc(Cl)cc2F)CC1 [Example 82, 4-(4-Chloro-2-fluorobenzyl)-1-((3,5-dimethyl-1H-pyrazol-4-yl)sulfonyl)piperidine] |
| 4.6 | COc1cc(Cl)ccc1CC1(OC)CCN(S(=O)(=O)c2c(C)n[nH]c2C)CC1 [Example 86, 4-(4-Chloro-2-methoxybenzyl)-1-((3,5-dimethyl-1H-pyrazol-4-yl)sulfonyl)-4-methoxypiperidine] |
| 0.64 | CCOC(=O)C1(Cc2ccc(Br)cc2)CCN(S(=O)(=O)c2c(C)nn(C)c2C)CC1 [Example 63, Ethyl 4-(4-bromobenzyl)-1-((1,3,5-trimethyl-1H-pyrazol-4-yl)sulfonyl)piperidine-4-carboxylate] |
| 0.08 | COC(c1ccc(Cl)cc1)C1CCN(S(=O)(=O)c2c(C)n[nH]c2C)CC1 (stereo not shown) [Example 96, 4-((4-Chlorophenyl)(methoxy)methyl)-1-((3,5-dimethyl-1H-pyrazol-4-yl)sulfonyl)piperidine] |
| 2.02 | Cc1nn(C)c(Cl)c1S(=O)(=O)N1CCC(Cc2ccc(Cl)cc2)CC1 [Example 68, 1-((5-Chloro-1,3-dimethyl-1H-pyrazol-4-yl)sulfonyl)-4-(4chlorobenzyl)piperidine] |
| 5.9 | COc1c(F)cc(OC2CCN(S(=O)(=O)c3c(C)n[nH]c3C)CC2)cc1F [Example 42, 4-(3,5-Difluoro-4-methoxyphenoxy)-1-(3,5-dimethyl-1H-pyrazole-4-sulfonyl)piperidine] |
